# Measured values reported in paper PMC6534110, “Enzyme characterization and biological activities of a resuscitation promoting factor from an oil degrading bacterium Rhodococcus erythropolis KB1” (PeerJ, 2019).
# Target: T1, Rpf-1 (Rhodococcus erythropolis, UniProt C0ZMT9)
# T1 construct: N-terminal Trx-His-S tag of pET-32a(+) kept (37 kDa on SDS-PAGE); forward primer encodes MSGRHR, reverse primer encodes C-terminal AKTFLK; conserved Cys50, Glu51, Cys114
# Test: fluorogenic hydrolysis, 4-methylumbelliferone release ([…] nm)
# Assay type: biochemical
# Details: 22 μM printed, McIlvaine phosphate-citrate buffer pH 5.2, 37 °C, 30 min
# T1 sequence (C0ZMT9 entry or part of it): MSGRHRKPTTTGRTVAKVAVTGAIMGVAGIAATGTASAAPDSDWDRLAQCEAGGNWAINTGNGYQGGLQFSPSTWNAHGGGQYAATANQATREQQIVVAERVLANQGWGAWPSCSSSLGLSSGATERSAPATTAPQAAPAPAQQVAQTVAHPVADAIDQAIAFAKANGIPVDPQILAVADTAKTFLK
smiles,measurement,value
"CC(=O)N[C@H]1[C@H](Oc2ccc3c(C)cc(=O)oc3c2)O[C@H](CO)[C@@H](O[C@@H]2O[C@H](CO)[C@@H](O[C@@H]3O[C@H](CO)[C@@H](O)[C@H](O)[C@H]3NC(C)=O)[C@H](O)[C@H]2NC(C)=O)[C@@H]1O [4-methylumbelliferyl-β-D-N,N′,N″-triacetylchitotrioside]","fluorogenic hydrolysis, 4-methylumbelliferone release (360/455 nm)",The recombinant Rpf-1 showed muralytic activity when determined with the artificial lysozyme substrate
